Measurements reported in patent US4205164A, “Antibiotic A201C, A201D and A201E” (priority 1979, dated 1980).
Converted amounts (≈) assume the structure as drawn. Like-named read-outs stand apart in the source and are kept apart here.

Assays:
Staph. epi. Epi1 = test: MIC by standard agar-dilution test, Staph. epi. Epi1; format: cell-based
Description: (§1) The minimal inhibitory concentrations (MIC's) at which A201C, A201D, and A201E inhibit selected Gram positive bacteria, as determined by standard agar-dilution tests, are summarized in Table I: […]

H. influ. R252 = test: MIC by standard agar-dilution test, H. influ. R252; format: cell-based
Staph. aureus X400 = test: MIC by standard agar-dilution test, Staph. aureus X400; format: cell-based; details: Staphylococcus aureus
Description: as §1

Staph. epi. Epi2 = test: MIC by standard agar-dilution test, Staph. epi. Epi2; format: cell-based
Description: as §1

H. influ. HOLT = test: MIC by standard agar-dilution test, H. influ. HOLT; format: cell-based
Streptococcus Park = test: MIC by standard agar-dilution test, Streptococcus Park; format: cell-based
Description: as §1

Staph. aureus S13E = test: MIC by standard agar-dilution test, Staph. aureus S13E; format: cell-based; details: Staphylococcus aureus
Description: as §1

Streptococcus 9960 = test: MIC by standard agar-dilution test, Streptococcus 9960; format: cell-based; details: Streptococcus 9960, agar dilution
Description: as §1

Streptococcus X66 = test: MIC by standard agar-dilution test, Streptococcus X66; format: cell-based
Description: as §1

Staph. aureus V41 = test: MIC by standard agar-dilution test, Staph. aureus V41; format: cell-based; details: Staphylococcus aureus
Description: as §1

Streptococcus C203 = test: MIC by standard agar-dilution test, Streptococcus C203; format: cell-based
Description: as §1

Staph. aureus X1.1 = test: MIC by standard agar-dilution test, Staph. aureus X1.1; format: cell-based; details: Staphylococcus aureus; Staph. aureus X1.1, agar dilution
Description: as §1

[1] = test system: Diplococcus pneumoniae Park I; test: Therapy of mouse infection, Diplococcus pneumoniae Park I; format: in vivo, Mice; details: 1 and 5 hour post infection, 7 days
Method: (§2) One hour and five hours later the mice are given a subcutaneous (S.C.) dose of the compound in 60% propylene glycol. The compound is administered at five different dosage levels (eight mice for each dosage level). The animals are observed for 7 days and the number of survivors is noted. For each organism, the ED50 value is calculated using the method of W. Wick, J. Bacteriol. 81, 233 (1961).
(§3) ^b Compound administered subcutaneously (S.C.), 1 and 5 hour post

[2] = test system: Streptococcus pyogenes C203; test: Therapy of mouse infection, Streptococcus pyogenes C203; format: in vivo, Mice; details: 1 and 5 hour post infection, 7 days
Method: as §2, §3

[3] = test system: Staphylococcus aureus 3055; test: Therapy of mouse infection, Staphylococcus aureus 3055; format: in vivo, Mice; details: 1 and 5 hour post infection, 7 days
Method: as §2, §3

[4] = test system: pathogenic microorganisms, particularly Gram positive bacteria; test: Inhibition of growth of pathogenic microorganisms (general statement); format: cell-based
[5] = test system: experimental bacterial infections; test: In vivo therapeutic activity against experimental bacterial infections (general statement); details: mice
Method: as §2

pKa = format: physicochemical; details: 66% dmf-h2o
[6] = H. influ. R252, agar dilution, read-out: MIC

In the case of COC(COC1OC(C)C(OC)C(OC)C1O)=C1OC(Oc2ccc(C=C(C)C(=O)NC3C(CO)OC(n4cnc5c(N(C)C)ncnc54)C3O)cc2)C(O)C1O (stereo not drawn) [Factor A201A, reference compound], the MIC (Staph. epi. Epi1) is reported as 16 µg/mL (≈ 19.9 µM), the MIC (H. influ. R252; [6]) is reported as 4 µg/mL (≈ 4.98 µM) and the MIC (Staph. aureus X400) is reported as 1 µg/mL (≈ 1.25 µM). It also gave an MIC (Staph. epi. Epi2) of 8 µg/mL (≈ 9.96 µM), an MIC (H. influ. HOLT) of 8 µg/mL (≈ 9.96 µM) and an MIC (Streptococcus Park) of 4 µg/mL (≈ 4.98 µM). The MIC (Staph. aureus S13E) was 1 µg/mL (≈ 1.25 µM), the MIC (Streptococcus 9960) was 64 µg/mL (≈ 79.7 µM) and the MIC (Streptococcus X66) was 8 µg/mL (≈ 9.96 µM). It also gave an MIC (Staph. aureus V41; Staph. aureus V41, agar dilution, read-out: MIC) of 16 µg/mL (≈ 19.9 µM), an MIC (Streptococcus C203) of 0.25 µg/mL (≈ 0.311 µM) and an MIC (Staph. aureus X1.1) of 1 µg/mL (≈ 1.25 µM).

COC(COC1OC(C)C(OC)C(OC)C1O)=C1OC(Oc2ccc(C=C(C)C(=O)NC3C(CO)OC(n4cnc5c(N(C)C)ncnc54)C3O)cc2O)C(O)C1O (stereo not drawn) [Factor C] showed an MIC (Staph. epi. Epi1) of 128 µg/mL (≈ 156 µM), an MIC (H. influ. R252) of 32 µg/mL (≈ 39.1 µM) and an MIC (Staph. aureus X400) of 8 µg/mL (≈ 9.77 µM). For the same compound, the “Survivors/Total No. of Mice” value ([1]; 4.378 mg/kg S.C.) was 0/8, the “Survivors/Total No. of Mice” value ([1]; 8.75 mg/kg S.C.) was 0/8 and the “Survivors/Total No. of Mice” value ([1]; 17.5 mg/kg S.C.) was 0/8. For the same compound, the “Survivors/Total No. of Mice” value ([1]; 35 mg/kg S.C.) was 0/8, the “Survivors/Total No. of Mice” value ([1]; 70 mg/kg S.C.) was 0/8 and the ED50 ([1]; Streptococcus pneumoniae, sc, 168 h, S.C., IP infection 260 LD50's) was greater than 70 mg/kg. For the same compound, the MIC (Staph. epi. Epi2) was 64 µg/mL (≈ 78.2 µM), the “Survivors/Total No. of Mice” value ([2]; 2.19 mg/kg S.C.) was 0/8 and the “Survivors/Total No. of Mice” value ([2]; 4.375 mg/kg S.C.) was 4/8. For the same compound, the “Survivors/Total No. of Mice” value ([2]; 8.75 mg/kg S.C.) was 6/8, the “Survivors/Total No. of Mice” value ([2]; 17.5 mg/kg S.C.) was 8/8 and the “Survivors/Total No. of Mice” value ([2]; 35 mg/kg S.C.) was 8/8. The ED50 ([2]; Streptococcus pyogenes, C203, sc, 168 h, S.C., IP infection 243 LD50's) was 5.3 mg/kg, the MIC (H. influ. HOLT) was 132 µg/mL (≈ 161 µM) and the “Survivors/Total No. of Mice” value ([3]; 2.19 mg/kg S.C.) was 0/8. The “Survivors/Total No. of Mice” value ([3]; 4.375 mg/kg S.C.) was 1/8, the “Survivors/Total No. of Mice” value ([3]; 8.75 mg/kg S.C.) was 3/8 and the “Survivors/Total No. of Mice” value ([3]; 17.5 mg/kg S.C.) was 0/8. For the same compound, the “Survivors/Total No. of Mice” value ([3]; 35 mg/kg S.C.) was 5/8, the ED50 ([3]; Staphylococcus aureus, 3055, sc, 168 h, S.C., IP infection 260 LD50's) was 26 mg/kg and the MIC (Streptococcus Park) was 8 µg/mL (≈ 9.77 µM). It also gave an MIC (Staph. aureus S13E) of 8 µg/mL (≈ 9.77 µM), an MIC (Streptococcus 9960) greater than 128 µg/mL and an MIC (Streptococcus X66) of 64 µg/mL (≈ 78.2 µM). The MIC (Staph. aureus V41; V41) was greater than 128 µg/mL, the “inhibition of growth of pathogenic microorganisms” value (“inhibition” below) [4] was “inhibit the growth of certain pathogenic microorganisms, particularly Gram positive bacteria” and the “in vivo therapeutic activity against experimental bacterial infections” value ([5]; listed as A201C) was “has shown in vivo therapeutic activity against experimental bacterial infections”. The “in vivo therapeutic activity against experimental bacterial infections” value ([5]; listed as Formula II) was “has shown in vivo therapeutic activity against experimental bacterial infections in mice”, the MIC (Streptococcus C203) was 1 µg/mL (≈ 1.22 µM) and the MIC (Staph. aureus X1.1) was 8 µg/mL (≈ 9.77 µM). It also gave a pKa (pKa) of 11.4.

With COC(CO)=C1OC(Oc2ccc(C=C(C)C(=O)NC3C(CO)OC(n4cnc5c(N(C)C)ncnc54)C3O)cc2)C(O)C1O (stereo not drawn) [Factor D] the MIC (Staph. epi. Epi1) was 128 µg/mL (≈ 204 µM), the MIC (H. influ. R252; [6]) was 64 µg/mL (≈ 102 µM) and the MIC (Staph. aureus X400) was 64 µg/mL (≈ 102 µM). The MIC (Staph. epi. Epi2) was 128 µg/mL (≈ 204 µM), the MIC (H. influ. HOLT) was 128 µg/mL (≈ 204 µM) and the MIC (Streptococcus Park) was 64 µg/mL (≈ 102 µM). For the same compound, the MIC (Staph. aureus S13E) was 32 µg/mL (≈ 50.9 µM), the MIC (Streptococcus 9960) was greater than 128 µg/mL and the MIC (Streptococcus X66) was greater than 128 µg/mL. For the same compound, the MIC (Staph. aureus V41; V41) was greater than 128 µg/mL, the “inhibition” value [4] was “inhibit the growth of certain pathogenic microorganisms, particularly Gram positive bacteria” and the MIC (Streptococcus C203) was 8 µg/mL (≈ 12.7 µM). It also gave an MIC (Staph. aureus X1.1) of 32 µg/mL (≈ 50.9 µM).

Compound COC(COC1OC(C)C(OC)C(OC)C1O)C1OC(Oc2ccc(C=C(C)C(=O)NC3C(CO)OC(n4cnc5c(N(C)C)ncnc54)C3O)cc2)C(O)C1O (stereo not drawn) [Factor E] has an MIC (Staph. epi. Epi1) of 64 µg/mL (≈ 79.5 µM), an MIC (H. influ. R252; [6]) of 32 µg/mL (≈ 39.8 µM) and an MIC (Staph. aureus X400) of 16 µg/mL (≈ 19.9 µM). For the same compound, the MIC (Staph. epi. Epi2) was 64 µg/mL (≈ 79.5 µM), the MIC (H. influ. HOLT) was 32 µg/mL (≈ 39.8 µM) and the MIC (Streptococcus Park) was 16 µg/mL (≈ 19.9 µM). The MIC (Staph. aureus S13E) was 16 µg/mL (≈ 19.9 µM), the MIC (Streptococcus 9960) was greater than 128 µg/mL and the MIC (Streptococcus X66) was 64 µg/mL (≈ 79.5 µM). For the same compound, the MIC (Staph. aureus V41; V41) was 128 µg/mL (≈ 159 µM), the “inhibition” value [4] was “inhibit the growth of certain pathogenic microorganisms, particularly Gram positive bacteria” and the MIC (Streptococcus C203) was 1 µg/mL (≈ 1.24 µM). For the same compound, the MIC (Staph. aureus X1.1) was 16 µg/mL (≈ 19.9 µM).
